Data from patent US8741906B2 (priority 2011, dated 2014).
Like-named read-outs stand apart in the source and are kept apart here.

Legend:
[1] = molecular target: T1, human CB2 receptors (Homo sapiens, UniProt P34972); assay: functional cAMP assay, human CB2; format: cell-based; conditions: CHO cells expressing human CB2, cAMP; read-out: human CB2 EC50
T1 construct: expressed in transfected cells; host or cells: CHO cells
Method in brief: (§1)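 Compound exposure lasted 30 min at 30 °C in IBMX (1 mM)-containing Krebs Ringer bicarbonate buffer, applied to human CB1- or CB2-expressing CHO cells. Lysates were read by time-resolved FRET cAMP detection, converted via cAMP standard curve (10 μM–0.13 nM), and EC50 values calculated.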

[2] = molecular target: T2, human CB1 receptors (Homo sapiens, UniProt P21554); assay: functional cAMP assay, human CB1; format: cell-based
T2 construct: expressed in transfected cells; host or cells: CHO cells
T2 sequence (P21554 whole entry): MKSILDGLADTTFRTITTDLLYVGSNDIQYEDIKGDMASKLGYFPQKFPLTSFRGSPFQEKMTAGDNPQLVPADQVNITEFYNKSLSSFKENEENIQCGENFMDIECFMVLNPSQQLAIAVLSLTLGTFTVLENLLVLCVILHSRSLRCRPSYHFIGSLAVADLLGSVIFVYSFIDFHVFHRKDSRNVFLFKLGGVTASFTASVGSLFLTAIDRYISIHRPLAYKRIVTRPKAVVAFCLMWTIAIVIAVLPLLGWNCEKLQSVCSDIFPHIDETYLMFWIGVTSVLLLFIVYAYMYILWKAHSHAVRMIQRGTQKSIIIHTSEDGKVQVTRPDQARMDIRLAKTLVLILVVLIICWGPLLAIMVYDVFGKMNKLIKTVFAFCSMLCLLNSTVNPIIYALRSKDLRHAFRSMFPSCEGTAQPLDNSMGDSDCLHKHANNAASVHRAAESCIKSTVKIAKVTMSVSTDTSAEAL
Method in brief: as §1

[3] = CHO cells expressing human CB1, cAMP, read-out: human CB1 EC50

T1 sequence (P34972 whole entry): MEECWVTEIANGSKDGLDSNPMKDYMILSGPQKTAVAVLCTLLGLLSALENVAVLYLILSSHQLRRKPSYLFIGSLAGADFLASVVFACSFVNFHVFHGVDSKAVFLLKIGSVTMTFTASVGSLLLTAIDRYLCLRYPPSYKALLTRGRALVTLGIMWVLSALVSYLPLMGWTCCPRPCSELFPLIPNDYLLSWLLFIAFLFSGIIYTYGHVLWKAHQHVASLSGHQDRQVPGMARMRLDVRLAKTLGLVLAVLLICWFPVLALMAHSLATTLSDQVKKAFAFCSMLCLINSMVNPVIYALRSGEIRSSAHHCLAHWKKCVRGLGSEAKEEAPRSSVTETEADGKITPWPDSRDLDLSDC

Structure (SMILES) | EC50 [1] [µM] | EC50 [2, 3] [µM] | EC50 [2] [µM]
Cn1nncc1Cn1nnc2c(N3CCC(F)(F)C3)nc(C(C)(C)C)nc21 [Example 145, 5-tert-Butyl-7-(3,3-difluoro-pyrrolidin-1-yl)-3-(3-methyl-3H-[1,2,3]triazol-4-ylmethyl)-3H-[1,2,3]triazolo[4,5-d]pyrimidine] | 0.0002 | 2.25 | 
CC(C)(C)c1nc(N2CCC(O)C2)c2nnn(Cc3ccccc3Cl)c2n1 (centres unmarked) [Example 204, 1-[5-tert-Butyl-3-(2-chloro-benzyl)-3H-[1,2,3]triazolo[4,5-d]pyrimidin-7-yl]-pyrrolidin-3-ol] | 0.0005 | > 10 | 
COC(=O)C1CN(c2nc(C(C)(C)C)nc3c2nnn3Cc2ccccc2Cl)C1 [Example 197, 1-[5-tert-Butyl-3-(2-chloro-benzyl)-3H-[1,2,3]triazolo[4,5-d]pyrimidin-7-yl]-azetidine-3-carboxylic acid methyl ester] | 0.257 |  | > 10
CC(C)(C)c1nc(NC2CCCCC2)c2nnn(Cc3ccccc3Cl)c2n1 [Example 8, [5-tert-Butyl-3-(2-chloro-benzyl)-3H-[1,2,3]triazolo[4,5-d]pyrimidin-7-yl]-cyclohexyl-amine] | 0.647 |  | > 10
CC(C)(C)c1nc(N2CCC(F)(F)C2)c2nnn(CCc3cccc(Cl)c3)c2n1 [Example 104, 5-tert-Butyl-3-[2-(3-chloro-phenyl)-ethyl]-7-(3,3-difluoro-pyrrolidin-1-yl)-3H-[1,2,3]triazolo[4,5-d]pyrimidine] | 0.0009 | > 10 | 
CC(C)(C)c1nc(N2CCCCO2)c2nnn(Cc3ccccc3Cl)c2n1 [Example 39, 5-tert-Butyl-3-(2-chloro-benzyl)-7-[1,2]oxazinan-2-yl-3H-[1,2,3]triazolo[4,5-d]pyrimidine] | 0.0079 | 1.33 | 
Cc1nonc1Cn1nnc2c(N3CCC(F)(F)C3)nc(C(C)(C)C)nc21 [Example 101, 5-tert-Butyl-7-(3,3-difluoro-pyrrolidin-1-yl)-3-(4-methyl-furazan-3-ylmethyl)-3H-[1,2,3]triazolo[4,5-d]pyrimidine] | 0.0001 | > 10 | 
CC(C)(C)c1nc(N2CCC[C@H]2CO)c2nnn(Cc3ccccc3Cl)c2n1 [Example 38, {(S)-1-[5-tert-Butyl-3-(2-chloro-benzyl)-3H-[1,2,3]triazolo[4,5-d]pyrimidin-7-yl]-pyrrolidin-2-yl}-methanol] | 0.0182 | 0.361 | 
C[C@H](Oc1nc(C(C)(C)C)nc2c1nnn2Cc1ccccc1Cl)C(F)(F)F [Example 215, 5-tert-Butyl-3-(2-chloro-benzyl)-7-((S)-2,2,2-trifluoro-1-methyl-ethoxy)-3H-[1,2,3]triazolo[4,5-d]pyrimidine] | 0.0247 | > 10 | 
CC(C)(C)c1nc(N2CCC(F)(F)C2)c2nnn([C@@H]3CCOC3)c2n1 [Example 108, 5-tert-Butyl-7-(3,3-difluoro-pyrrolidin-1-yl)-3-(R)-tetrahydro-furan-3-yl-3H-[1,2,3]triazolo[4,5-d]pyrimidine] | 0.0003 | > 10 | 
CC(C)(C)c1nc(N2CCC(O)C2)c2nnn(Cc3ccccc3Cl)c2n1 (centres unmarked) [Example 218, 1-(5-tert-butyl-3-(2-chlorobenzyl)-3H-[1,2,3]triazolo[4,5-d]pyrimidin-7-yl)pyrrolidin-3-ol] | 0.0005 | > 10 | 
CC(C)(C)c1nc(N2CCCCC2)c2nnn(Cc3ccccc3Cl)c2n1 [Example 2, 5-tert-Butyl-3-(2-chloro-benzyl)-7-piperidin-1-yl-3H-[1,2,3]triazolo[4,5-d]pyrimidine] | 0.0016 | 0.555 | 
CC(Oc1nc(C(C)(C)C)nc2c1nnn2Cc1ccccc1Cl)C1CC1 (centres unmarked) [Example 211, 5-tert-Butyl-3-(2-chloro-benzyl)-7-(1-cyclopropyl-ethoxy)-3H-[1,2,3]triazolo[4,5-d]pyrimidine] | 0.0986 | > 10 | 
CC(C)(C)c1nc(N2CCSCC2)c2nnn(Cc3ccccc3Cl)c2n1 [Example 20, 5-tert-Butyl-3-(2-chloro-benzyl)-7-thiomorpholin-4-yl-3H-[1,2,3]triazolo[4,5-d]pyrimidine] | 0.0017 | 0.346 | 
Cc1nonc1Cn1nnc2c(N3CC[C@H](O)C3)nc(C(C)(C)C)nc21 [Example 136, (S)-1-[5-tert-Butyl-3-(4-methyl-furazan-3-ylmethyl)-3H-[1,2,3]triazolo[4,5-d]pyrimidin-7-yl]-pyrrolidin-3-ol] | 0.0002 | > 10 | 
CC(C)(C)c1nc(N2CCOCC2)c2nn[nH]c2n1 [Example 58] | 0.337 | > 10 | 
CC(C)(C)c1nc(N2C[C@@H](F)C[C@H]2C#N)c2nnn(Cc3ccccc3Cl)c2n1 [Example 46, (2S,4S)-1-[5-tert-Butyl-3-(2-chloro-benzyl)-3H-[1,2,3]triazolo[4,5-d]pyrimidin-7-yl]-4-fluoro-pyrrolidine-2-carbonitrile] | 0.0044 | 2.31 | 
CC(C)(C)c1nc(N2CC3(COC3)C2)c2nnn(Cc3ccccc3S(C)(=O)=O)c2n1 [Example 186, 5-tert-Butyl-3-(2-methanesulfonyl-benzyl)-7-(2-oxa-6-aza-spiro[3.3]hept-6-yl)-3H-[1,2,3]triazolo[4,5-d]pyrimidine] | 0.0003 | 0.137 | 
CCOc1nc(C(C)(C)C)nc2c1nnn2Cc1ccccc1Cl [Example 208, 5-tert-Butyl-3-(2-chloro-benzyl)-7-ethoxy-3H-[1,2,3]triazolo[4,5-d]pyrimidine] | 0.0092 | > 10 | 
CC(C)(C)c1nc(N2CCSC2)c2nnn(Cc3ccccc3Cl)c2n1 [Example 19, 5-tert-Butyl-3-(2-chloro-benzyl)-7-thiazolidin-3-yl-3H-[1,2,3]triazolo[4,5-d]pyrimidine] | 0.0017 | 0.131 | 
CC(C)(C)c1nc(N2CCC(F)(F)C2)c2nnn(Cc3cccc(F)c3Cl)c2n1 [Example 89, 5-tert-Butyl-3-(2-chloro-3-fluoro-benzyl)-7-(3,3-difluoro-pyrrolidin-1-yl)-3H-[1,2,3]triazolo[4,5-d]pyrimidine] | 0.0003 | 0.463 | 
CC(C)(C)c1nc(N2CCCC2)c2nnn(Cc3ccccc3Cl)c2n1 [Example 5, 5-tert-Butyl-3-(2-chloro-benzyl)-7-pyrrolidin-1-yl-3H-[1,2,3]triazolo[4,5-d]pyrimidine] | 0.0003 | 0.632 | 
Cc1noc(Cn2nnc3c(N4CC[C@](C)(O)C4)nc(C(C)(C)C)nc32)n1 [Example 226-a, (S)-1-(5-tert-butyl-3-((3-methyl-1,2,4-oxadiazol-5-yl)methyl)-3H-[1,2,3]triazolo[4,5-d]pyrimidin-7-yl)-3-methylpyrrolidin-3-ol] | 0.057 | > 10 | 
Cc1nonc1Cn1nnc2c(N3CC[C@@](C)(O)C3)nc(C(C)(C)C)nc21 [Example 228-b, (R)-1-(5-tert-butyl-3-((4-methyl-1,2,5-oxadiazol-3-yl)methyl)-3H-[1,2,3]triazolo[4,5-d]pyrimidin-7-yl)-3-methylpyrrolidin-3-ol] | 0.0033 | > 10 | 
CC(C)(C)c1nc(N2CC[C@H](O)C2)c2nnn(Cc3ccccc3Cl)c2n1 [Example 26, (S)-1-[5-tert-Butyl-3-(2-chloro-benzyl)-3H-[1,2,3]triazolo[4,5-d]pyrimidin-7-yl]-pyrrolidin-3-ol] | 0.0011 | 0.866 | 
